Source: PubChem BioAssay AID328 (DTP/NCI, 2004)
Values joined by “and” are separate entries in the source; they are usually repeats but may differ in a detail not shown here. Identical values can stand only once. Inconclusive results and toxic doses are left out.

System: BDF1 mice, P388 leukemia ip, median survival T/C
Test: NCI In Vivo Anticancer Drug Screen. Data for tumor model P388 Leukemia (intraperitoneal) in B6D2F1 (BDF1) mice
Conditions: endpoint: median survival time, higher = longer survival
In short: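 Survival ratio, drug arm over vehicle arm, in mice with a transplanted tumour.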

[1] = dose: 3.12 mg/kg/injection, schedule: Q01DX009 (ip), vehicle: saline
[2] = dose: 12.5 mg/kg/injection, schedule: Q01DX009 (ip), vehicle: saline
[3] = dose: 25.0 mg/kg/injection, schedule: Q01DX009 (ip), vehicle: saline
[4] = dose: 6.25 mg/kg/injection, schedule: Q01DX009 (ip), vehicle: saline

O=C1NC(=O)N(c2ccccc2)C(=O)/C1=C/c1ccccc1
T/C (dose: 50.0 mg/kg/injection, schedule: Q01DX001 (ip), vehicle: saline sonified): 110 % of control
T/C (dose: 100.0 mg/kg/injection, schedule: Q01DX001 (ip), vehicle: saline sonified): 105 % of control
T/C (dose: 200.0 mg/kg/injection, schedule: Q01DX001 (ip), vehicle: saline sonified): 100 % of control

O=NNc1ccccn1
T/C [1]: 105 % of control
T/C [2]: 214 % of control
T/C [3]: 112 % of control

Brc1ccc(C[n+]2ccccc2)cc1
T/C [4]: 91 % of control
T/C [2]: 87 % of control
T/C [3]: 95 % of control
T/C (dose: 25.0 mg/kg/injection, schedule: Q04DX003 (ip), vehicle: saline): 100 % of control

O/N=C(\c1ccccc1)C(c1ccccc1)C(Cl)(Cl)Cl (stereo not drawn)
T/C (dose: 100.0 mg/kg/injection, schedule: Q04DX003 (ip), vehicle: Klucel (hydroxypropylcellulose) (HPC)): 100 % of control
T/C (dose: 200.0 mg/kg/injection, schedule: Q04DX003 (ip), vehicle: Klucel (hydroxypropylcellulose) (HPC)): 100 % of control
T/C (dose: 400.0 mg/kg/injection, schedule: Q04DX003 (ip), vehicle: Klucel (hydroxypropylcellulose) (HPC)): 100 % of control

NC1CC[N-]CC1.NC1CC[N-]CC1.[Cl][Pt+2]([Cl])([Cl])[Cl]
T/C [1]: 109 % of control
T/C [4]: 100 % of control and 118 % of control
T/C [2]: 108 % of control
T/C [3]: 120 % of control
T/C (dose: 50.0 mg/kg/injection, schedule: Q01DX009 (ip), vehicle: saline): 111 % of control

CCOCCO
T/C (dose: 5.0 mg/kg/injection, schedule: Q01DX009 (ip), vehicle: saline): 103 % of control
T/C (dose: 5.0 mg/kg/injection, schedule: Q04DX003 (ip), vehicle: saline): 92 % of control
T/C (dose: 10.0 mg/kg/injection, schedule: Q01DX009 (ip), vehicle: saline): 88 % of control
T/C (dose: 10.0 mg/kg/injection, schedule: Q04DX003 (ip), vehicle: saline): 92 % of control
T/C (dose: 20.0 mg/kg/injection, schedule: Q04DX003 (ip), vehicle: saline): 88 % of control

Cc1cc(Cl)ccc1NS(=O)(=O)c1ccc(Br)cc1
T/C (dose: 100.0 mg/kg/injection, schedule: Q04DX003 (ip), vehicle: saline with Tween-80): 90 % of control
T/C (dose: 200.0 mg/kg/injection, schedule: Q04DX003 (ip), vehicle: saline with Tween-80): 90 % of control
T/C (dose: 400.0 mg/kg/injection, schedule: Q04DX003 (ip), vehicle: saline with Tween-80): 95 % of control

O=C1c2cccnc2C(=O)c2c(O)ccc(O)c21
T/C (dose: 25.0 mg/kg/injection, schedule: Q01DX009 (ip), vehicle: saline with Tween-80): 97 % of control
T/C (dose: 50.0 mg/kg/injection, schedule: Q01DX009 (ip), vehicle: saline with Tween-80): 99 % of control
T/C (dose: 100.0 mg/kg/injection, schedule: Q01DX009 (ip), vehicle: saline with Tween-80): 92 % of control
T/C (dose: 200.0 mg/kg/injection, schedule: Q01DX009 (ip), vehicle: saline with Tween-80): 115 % of control

Cc1ccc(N(OC(=O)c2ccccc2)C(C)(C)C)cc1
T/C (dose: 25.0 mg/kg/injection, schedule: Q04DX002 (ip), vehicle: saline with Tween-80): 93 % of control
T/C (dose: 50.0 mg/kg/injection, schedule: Q04DX002 (ip), vehicle: saline with Tween-80): 109 % of control
T/C (dose: 100.0 mg/kg/injection, schedule: Q04DX002 (ip), vehicle: saline with Tween-80): 111 % of control and 113 % of control

C/C(=N\NC(N)=O)c1ccc(Cl)cc1
T/C (dose: 50.0 mg/kg/injection, schedule: Q01DX009 (ip), vehicle: Klucel (hydroxypropylcellulose) (HPC)): 94 % of control
T/C (dose: 100.0 mg/kg/injection, schedule: Q01DX009 (ip), vehicle: Klucel (hydroxypropylcellulose) (HPC)): 108 % of control

Cc1cn(C2CC(O)C(CO)O2)c(=O)[nH]c1=O (stereo not drawn)
T/C (dose: 500.0 mg/kg/injection, schedule: Q04DX003 (ip), vehicle: saline): 101 % of control
T/C (dose: 750.0 mg/kg/injection, schedule: Q04DX003 (ip), vehicle: saline): 111 % of control
T/C (dose: 1000.0 mg/kg/injection, schedule: Q04DX003 (ip), vehicle: saline): 104 % of control
